Experimental data taken from patent US10183015B2, “Heterocyclic compounds and methods of use” (Medivation Technologies LLC, priority 2015, dated 2019).
Several values for one entry are separate records, joined by “and”; a condition that tells them apart may be missing. Identical values can stand only once.

Assays:
[1] = tested on: 60% high fat Paigen diet induced NASH mouse model; experiment: Short-term Paigen-diet NASH mouse model: NAFLD (NAS) score histopathology; type: in vivo; design: NAS score: total / NAS score: steatose / NAS score: inflammation / NAS score: fibrosis / NAS score: hepatocyte ballooning: scale not given here
Method: To investigate whether Compound #37 prevents the development of pathology associated with NASH and steatosis in an acute exploratory disease model, a study was conducted using a diet-induced acute liver steatosis model in mice. […]
After acclimation, 8-week old male C57Bl/6J mice (Charles River) weighing about 25 g were randomized in 4 groups according their body weight and treated once daily around noon by oral gavage with vehicle, […] (2-hydroxypropyl)-β-cyclodextrin (HP-β-CD) (n=10); Group 2: Compound #37, 5 mg/kg (n=10) Group 3: Compound #37, 20 mg/kg (n=10) Group 4: Compound #37, 40 mg/kg (n=10). During the treatment period, body weight and food intake (measured over 24h) were measured 3 times per week and once a week, respectively. During the acclimation, all mice were fed a standard diet (Special Diets Services RM1 (E), product no. 801492) and tap water ad libitum. After the acclimation period, mice were fed until the end of the experiment with a 60% high fat Paigen diet (60 kcal % fat, 1.25% cholesterol, and 0.5% cholate; D11061901, Research Diet) and tap water ad libitum.
NAFLD score analysis. A 0.5 cm^3 piece of liver was fixed in 10% formalin for 48-72h, stored in ethanol 70° at 4° C., and processed for eosin/hematoxylin staining and NAFLD score analysis. One section (thickness 3-5 μm) per block was deposited on Superfrost+slides for hematoxylin-eosin staining. Individual slides having a single hepatic lobe section stained with H&E were digitized using a Nanozoomer from Hamamatsu. Sections were evaluated with knowledge of groups. Each section was evaluated and individually scored. A NAFLD scoring system (NAS) adapted from Kleiner et al. (Hepatology 41, 1313-21, 2005), Wu et al. (BMC Vet. Res. 10, 162, 2014), and Lee et al. (J. Lipid Res. 48, 1885-96, 2007). A total of four variables were qualitatively assessed and ranked with a score: (1) hepatocellular steatosis, (2) liver inflammation, (3) lobular fibrosis, and (4) hepatocyte ballooning.

[2] = tested on: diet-induced NASH obese insulin resistant mice; experiment: Diet-induced NASH (DIN) obese insulin-resistant mouse model: plasma ALT and AST; type: in vivo; details: for ALAT area under the curve / ASAT area under the curve / ALAT, days of treatment 0 / ASAT, days of treatment 0 / ALAT, days of treatment 14 / ASAT, days of treatment 14 / ALAT, days of treatment 28 / ASAT, days of treatment 28 / ALAT, days of treatment 42 / ASAT, days of treatment 42 / ALAT, days of treatment 56 / ASAT, days of treatment 56 / ALAT, days of treatment 70 / ASAT, days of treatment 70: plasma; for ALAT area under the curve / ASAT area under the curve: 70-day treatment; for ALAT area under the curve / ASAT area under the curve / ALAT, days of treatment 0 / ASAT, days of treatment 0: 20 mg/kg; for ALAT, days of treatment 0 / ASAT, days of treatment 0: day 0 (baseline); for ALAT, days of treatment 14 / ASAT, days of treatment 14: day 14, 20 mg/kg; for ALAT, days of treatment 28 / ASAT, days of treatment 28: day 28, 20 mg/kg; for ALAT, days of treatment 42 / ASAT, days of treatment 42: day 42, 20 mg/kg; for ALAT, days of treatment 56 / ASAT, days of treatment 56: day 56, 20 mg/kg; for ALAT, days of treatment 70 / ASAT, days of treatment 70: day 70, 20 mg/kg
Method: Male C57Bl/6J mice (8 weeks old) were housed in enriched ventilated cages (31×12.5×12.7 cm) throughout the experimental phase. Animals' cages litters were changed at least once a week. Animal were housed 5 per cage on inverted 12-hour light cycle (at 09:00 am lights off), 22±2° C. and 55±10% relative humidity. The acclimation period was 20 days. During the acclimation period, all mice were fed a standard diet (RM1 (E) 801492, SDS) and tap water ad libitum. After the acclimation period, mice were fed with the DIN diet (60% fat, cholesterol enriched) and fructose-enriched tap water ad libitum until the end of the experiment.
At 6 weeks of diet, mice were 4-hour fasted (09:00 am to 1:00 pm) and blood (150 μl/EDTA) was collected at 01:00 pm by retro-orbital bleeding under isoflurane anesthesia. Mice were then allocated in 2 homogenous groups (n=12/group) according to their plasma levels of ALT (average levels: 685U/L), AST (average levels: 627U/L) and HOMA-IR index (average value: 4.7), into 2 homogenous groups (see values at day 0 in Tables 15A and 15B ALT/AST and Tables 16A and 16B for HOMA-IR). Mice were then treated once daily by oral gavage with vehicle (Group 1) or Compound #37 at 20 mg/kg (Group 2) for 70 days.
To investigate whether Compound #37 improves pre-existing steatosis/NASH pathology, a study was conducted using a 16-week diet-induced NASH mouse model. In this model, mice develop steatosis that progresses with inflammation and fibrosis that mimic many of the observed pathologies in human nonalcoholic fatty liver disease (NAFLD) and NASH (Hebbard & George, 2010). For 6 weeks, mice were fed a high-fat, high-cholesterol diet and provided drinking water containing fructose to induce liver pathology (Charlton et al, 2011). After 6 weeks, the mice were divided into 2 groups with similar mean aspartate aminotransferase (AST) and alanine aminotransferase (ALT) values (n=12 mice), although it should be noted that AST and ALT concentrations within both groups were higher and with greater variability than anticipated (e.g., mean ALT 677 U/L [SD, 401 U/L] in the vehicle control group and 693 U/L [SD, 365 U/L] in the Compound #37 group). After the animals were divided into 2 groups, the diet was continued for 10 additional weeks during which time 1 group received vehicle and the other was treated with 20 mg/kg/day Compound #37.

[3] = 5 mg/kg, 21 days, group mean, n 10
[4] = 20 mg/kg, 21 days, group mean, n 6
[5] = 40 mg/kg, 9 days, group mean, n 4

CC(C)Cc1cc(-c2nc(-c3ccc(NS(=O)(=O)C(F)(F)F)cc3Cl)cs2)ccn1 [Compound 37, N-(3-chloro-4-(2-(2-isobutylpyridin-4-yl)thiazol-4-yl)phenyl)-1,1,1-trifluoromethanesulfonamide]
animals with Grade 1 hepatocellular steatosis ([1]; 5 mg/kg, 21 days): 9/10 | animals with grade-3 inflammation ([1]; 5 mg/kg, 21 days): 4/10 | animals with limited periportal fibrosis (mostly Grade 1) ([1]; 5 mg/kg, 21 days): 10/10 | NAS score: fibrosis [1, 3]: 1.2 | NAS score: hepatocyte ballooning [1, 3]: 0.3 | NAS score: inflammation [1, 3]: 2 | NAS score: steatose [1, 3]: 1.1 | NAS score: total [1, 3]: 4.6 | NAS score: total ([1]; 5 mg/kg, 21 days, individual animals): 4 (2×) and 5 (4×) and 3 (2×) and 6 (2×) | animals with Grade 1 hepatocellular steatosis ([1]; 20 mg/kg, 21 days): 3/6 | animals with grade-3 inflammation ([1]; 20 mg/kg, 21 days): 1/6 | animals with limited periportal fibrosis (mostly Grade 1) ([1]; 20 mg/kg, 21 days): 3/6 | NAS score: fibrosis [1, 4]: 0.5 | NAS score: hepatocyte ballooning [1, 4]: 0 | NAS score: inflammation [1, 4]: 1.67 | NAS score: steatose [1, 4]: 0.5 | NAS score: total [1, 4]: 2.67 | NAS score: total ([1]; 20 mg/kg, 21 days, individual animals): 2 (2×) and 3 (2×) and 5 and 1 | NAS score: fibrosis [1, 5]: 0 | NAS score: hepatocyte ballooning [1, 5]: 1 | NAS score: inflammation [1, 5]: 0 | NAS score: steatose [1, 5]: 2 | NAS score: total [1, 5]: 3 | NAS score: total ([1]; 40 mg/kg, 9 days, individual animals): 3 | hepatotoxicity (transaminase concentrations) ([2]; 20 mg/kg/day, 10 weeks): No evidence of hepatotoxicity | ALAT area under the curve ([2]; group mean, n 11): 12252 U/L · day | ASAT area under the curve ([2]; group mean, n 11): 10763 U/L · day | ALAT area under the curve ([2]; individual animals): 18578 U/L · day and 17206 U/L · day and 11865 U/L · day and 9163 U/L · day and 5418 U/L · day and 9331 U/L · day and 17759 U/L · day and 11949 U/L · day and 16954 U/L · day and 8862 U/L · day and 7686 U/L · day | ASAT area under the curve ([2]; individual animals): 18662 U/L · day and 15001 U/L · day and 8456 U/L · day and 8141 U/L · day and 5607 U/L · day and 6573 U/L · day and 11550 U/L · day and 10388 U/L · day and 13167 U/L · day and 11690 U/L · day and 9163 U/L · day | ALAT, days of treatment 0 ([2]; group mean, n 12): 693 U/L | ASAT, days of treatment 0 ([2]; group mean, n 12): 615 U/L | ALAT, days of treatment 0 ([2]; individual animals): 1520 U/L and 698 U/L and 955 U/L and 551 U/L and 226 U/L and 365 U/L and 625 U/L and 563 U/L and 830 U/L and 662 U/L and 260 U/L and 1065 U/L | ASAT, days of treatment 0 ([2]; individual animals): 1440 U/L and 875 U/L and 584 U/L and 435 U/L and 217 U/L and 269 U/L and 464 U/L and 500 U/L and 725 U/L and 730 U/L and 283 U/L and 860 U/L | ALAT, days of treatment 14 ([2]; group mean, n 12): 255 U/L | ASAT, days of treatment 14 ([2]; group mean, n 12): 249 U/L | ALAT, days of treatment 14 ([2]; individual animals): 250 U/L and 252 U/L (2×) and 218 U/L and 200 U/L and 92 U/L and 198 U/L and 256 U/L and 410 U/L and 690 U/L and 134 U/L and 106 U/L | ASAT, days of treatment 14 ([2]; individual animals): 296 U/L and 268 U/L and 206 U/L and 228 U/L and 124 U/L and 150 U/L and 190 U/L and 288 U/L and 440 U/L and 248 U/L and 428 U/L and 126 U/L | ALAT, days of treatment 28 ([2]; group mean, n 12): 146 U/L | ASAT, days of treatment 28 ([2]; group mean, n 12): 146 U/L | ALAT, days of treatment 28 ([2]; individual animals): 176 U/L and 118 U/L and 96 U/L and 68 U/L and 58 U/L and 316 U/L and 226 U/L and 154 U/L and 160 U/L and 208 U/L and 38 U/L and 136 U/L | ASAT, days of treatment 28 ([2]; individual animals): 238 U/L and 98 U/L and 84 U/L and 76 U/L and 80 U/L and 168 U/L and 140 U/L and 102 U/L and 222 U/L and 288 U/L and 68 U/L and 190 U/L | ALAT, days of treatment 42 ([2]; group mean, n 12): 143 U/L | ASAT, days of treatment 42 ([2]; group mean, n 12): 136 U/L | ALAT, days of treatment 42 ([2]; individual animals): 68 U/L and 280 U/L and 52 U/L and 50 U/L (2×) and 136 U/L and 58 U/L and 168 U/L and 92 U/L and 66 U/L and 370 U/L and 322 U/L | ASAT, days of treatment 42 ([2]; individual animals): 88 U/L and 132 U/L and 80 U/L and 110 U/L and 140 U/L and 96 U/L and 200 U/L and 106 U/L and 130 U/L and 76 U/L and 174 U/L and 296 U/L | ALAT, days of treatment 56 ([2]; group mean, n 11): 136 U/L | ASAT, days of treatment 56 ([2]; group mean, n 11): 126 U/L | ALAT, days of treatment 56 ([2]; individual animals): 276 U/L and 80 U/L and 48 U/L and 68 U/L and 52 U/L and 54 U/L and 112 U/L and 130 U/L and 534 U/L and 70 U/L and 74 U/L | ASAT, days of treatment 56 ([2]; individual animals): 346 U/L and 122 U/L and 92 U/L and 108 U/L and 60 U/L and 96 U/L and 132 U/L and 112 U/L and 182 U/L and 130 U/L and 164 U/L | ALAT, days of treatment 70 ([2]; group mean, n 11): 413 U/L | ASAT, days of treatment 70 ([2]; group mean, n 11): 281 U/L | ALAT, days of treatment 70 ([2]; individual animals): 364 U/L and 1030 U/L and 326 U/L and 372 U/L and 210 U/L and 342 U/L and 1150 U/L and 358 U/L and 142 U/L (2×) and 104 U/L | ASAT, days of treatment 70 ([2]; individual animals): 258 U/L and 648 U/L and 162 U/L and 206 U/L and 180 U/L and 160 U/L and 524 U/L and 376 U/L and 182 U/L and 198 U/L and 192 U/L
